Experimental findings from US11578265B2, “AIEgens for cancer cell imaging” (THE HONG KONG UNIVERSITY OF SCIENCE AND TECHNOLOGY, priority 2016, dated 2023) are described below.

Data set [1] is described as follows: UV-vis and photoluminescence properties of 2TPE-4E. In kind it is physicochemical. The method, then:
The photophysical properties of 2TPE-4E were investigated by UV-vis (FIG. 7A) and photoluminescence (PL) spectra. […] The high ε means 2TPE-4E could be excited by a weak laser power, which is beneficial for bio-application due to the weak photo-damage and photobleaching.
Although the film of 2TPE-4E looked bright, its quantum yield (QY) was measured to be around 6%, which can probably be ascribed to the high molar extinction coefficient. […] With the water fraction (fw) increasing, 2TPE-4E began to aggregate and gave a highest intensity at a fw of 90% due to the restriction of intramolecular rotation.

The test system of data set [2] is NCI-H23 cells. The experiment in a line: CCK-8 cell viability with CSPP. In kind it is cell-based. The conditions noted are these: NCI-H23, CSPP up to 50 μM, 24 hours. The method, then:
(§1) HCC827 and NCI-H23 cells were seeded for 24 hours and incubated in CSPP of different concentration for 24 hours. Data given are the mean±SD (n=4). Before CSPP was further functionalized for antibody labeling, its biocompatibility was verified by CCK-8 assay (FIG. 22).

Data set [3] is described as follows: Water solubility of CSPP. In kind it is physicochemical. From the text: The design and synthesis of the present subject matter was inspired by the simple design and synthesis of ASCP, which was further modified and the hydrophilicity was improved. To prevent denature of antibodies during conjugation, aqueous solution was used for the reaction. A water-soluble AIEgen having a long wavelength in absorption and emission was required. Piperazine (PZ) was introduced to the structure and served as the electron donating group and hydrophilic group; pyridium (Py) salt was kept as the strong electron withdrawing group and hydrophilic group; and α-Cyanostilbene was the core skeleton for attributing AIE characteristics. As such, a new AIEgen, CSPP, was synthesized by Knoevenagel condensation and Suzuki coupling and the targeted compound was successfully obtained. CSPP carries two positive charges, thus enjoying high water-solubility, and its donor-acceptor structure contributes to a long-wavelength absorption, as well as emission. The synthetic route to CSPP and CSPP—NHS is shown below, with the scheme of synthesis following.

The test system of data set [4] is HCC827 cells. The experiment in a line: Cell imaging of CSPP and co-staining with MitoTracker Green. The conditions noted are these: 5 μM. In kind it is cell-based, human. As for the experimental part:
The cell imaging of CSPP molecule was also checked (FIG. 23). […] After 8 hours of incubation, more dyes entered and accumulated in the mitochondria of the cells due to targeting of the pyridium group.

For data set [5], the system named is HCC827 cells. The experiment in a line: CCK-8 cell viability with CSPP. In kind it is cell-based, human. The conditions noted are these: HCC827, CSPP up to 50 μM, 24 hours. The method, then: as §1
The nature of data set [6]: Photophysical properties of CSPP. In kind it is physicochemical. The method, then: Inset: photographs of CSPP in water/iPrOH mixtures with 0% and 99% iPrOH fractions taken under 365 nm UV irradiation; (c) PL spectrum of CSPP in water/glycerol mixtures with different glycerol fractions (fG); and (d) plot of I/I0 at 620 nm versus fG, where I0 was the PL intensity in pure water. Inset: plot of log I against log η, where η was the solution viscosity. Concentration: 10 μM; λex: 400 nm.
The photophysical properties of CSPP were studied. […] However, the emission was enhanced at 640 nm in increments of isopropanol fraction (FIGS. 20a and b), which is a signature of AIE. The free intramolecular motion of a molecularly dissolved state in aqueous solution was in favor of non-radiative decay.
Addition of isopropanol induced the formation of aggregates and restricted the intramolecular motion (RIM), activating the radiative channel. Similarly, intramolecular motion can also be restricted in a highly viscous condition.

Structures are written as SMILES. Some results are limits rather than exact numbers.

For the molecule `CCN(CC)c1ccc(C(=C(c2ccccc2)c2ccc(C#CC#CC#CC#Cc3ccc(C(=C(c4ccc(N(CC)CC)cc4)c4ccc(N(CC)CC)cc4)c4ccccc4)cc3)cc2)c2ccc(N(CC)CC)cc2)cc1` [2TPE-4E], the maximum absorption in data set [1] stood at 473 nm. For the same molecule, the “water fraction (fw) giving highest emission intensity” value in data set [1] (THF/water mixtures) is listed as 90%. The “emission in dilute THF solution” value in data set [1] (dilute THF) is on record as “very weak emission”. Moreover, in data set [1] (dilute THF solution and thin film), the “molar extinction coefficient (ε)” value was “about 7×10^4 M^−1 cm^−1”. The “quantum yield (QY)” value in data set [1] (film) is “around 6%”. The solid emission wavelength in data set [1] (thin film) was 630 nm.

As usually defined, the cell viability is a per cent measure of how many cells are alive, often set against a control. In the case of `C[n+]1ccc(-c2ccc(/C(C#N)=C/c3ccc(N4CC[N+](C)(C)CC4)cc3)cc2)cc1.[I-].[I-]` [CSPP, (Z)-4-(4-(2-cyano-2-(4-(1-methylpyridin-1-ium-4-yl)phenyl)vinyl)phenyl)-1,1-dimethylpiperazin-1-ium iodide], the cell viability in data set [2] is more than 81%; in data set [5], “above 90%”. In addition, the water solubility result in data set [3] is given as “water-soluble”. In addition, the “emission from stained cells” value in data set [4] (30 minutes) is reported as “no emission”; in data set [4] (8 hours), “mitochondria lit up”. Besides, the “Pearson correlation coefficient with MitoTracker Green” value in data set [4] (8 hours, co-staining) was 0.80. For the same molecule, the “λmax, abs” value in data set [6] (Aggregates in 99% isopropanol) came to 400 nm; in data set [6] (In 95% glycerol) it was 405 nm; in data set [6] (In water), 395 nm. The “λmax, em” value in data set [6] (Aggregates in 99% isopropanol) was found to be 624 nm; in data set [6] (In 95% glycerol), 610 nm; in data set [6] (In water) it was 640 nm. The φF came out at 5.6% in data set [6] (Aggregates in 99% isopropanol), 13.7% in data set [6] (In 95% glycerol) and 0.9% in data set [6] (In water). In addition, in data set [6] (pure water), the “emission in pure water” value is “very weak emission”.
